The nature of data set [1]: Stability of the crystalline form (purity under accelerated, intermediate and long-term storage). In kind it is physicochemical.
A short description of data set [2]: Hygroscopicity (sorption isotherm curve). It counts as physicochemical. As to conditions: at 80% RH.
From the text: According to the description of the hygroscopicity characteristics and the definition of hygroscopic weight gain in the Chinese Pharmacopoeia 2020 Edition, Volume IV, General Chapter 9103: Guidelines for Hygroscopicity Trials for Pharmaceuticals, • deliquescence: absorbing enough moisture to form a liquid; • extremely hygroscopic: a hygroscopic weight gain of not less than 15%; • hygroscopic: a hygroscopic weight gain of less than 15% but no less than 2%; • slightly hygroscopic: a hygroscopic weight gain of less than 2% but no less than 0.2%; and • non-hygroscopic or practically non-hygroscopic: a hygroscopic weight gain of less than 0.2%.
Data set [3] can be described thus: Pharmacokinetic test in rats. It counts as in vivo, SD rats.
Method: Experimental objective: in this experiment, a single dose of the test substance was administered to SD rats intravenously and intragastrically, and the concentration of the test substance in plasma of the rats was measured to evaluate the pharmacokinetic characteristics of the test substance in the rats. Experimental animals: male SD rats, 200-250 g, 6-8 weeks old, 6 rats/compound, purchased from Chengdu Dossy Experimental Animals Co., Ltd. Experimental method: on the day of the experiment, 6 SD rats were randomly grouped according to their body weights. […] Sampling: before and after the administration, 0.15 mL of blood was taken from the orbits under isoflurane anesthesia and placed in an EDTAK2 centrifuge tube. Centrifugation was carried out at 5000 rpm at 4°C for 10 min, and the plasma was collected. The plasma collection time points for IV&PO groups were 0, 5 min, 15 min, 30 min, 1 h, 2 h, 4 h, 6 h, 8 h, and 24 h. Before analysis and detection, all samples were stored at -60°C. The samples were analyzed quantitatively by LC-MS/MS.
A short description of data set [4]: Pharmacokinetic test in monkeys. The following applies: compared with the trifluoroacetate of LNP023, in words. In kind it is in vivo, cynomolgus monkeys.
Method: Experimental objective: in this experiment, a single dose of test substance was administered to cynomolgus monkeys intravenously and intragastrically, and the concentration of the test substance in plasma of the monkeys was measured to evaluate the pharmacokinetic characteristics of the test substance in the monkeys.
Experimental animals: male cynomolgus monkeys, 3-5 kg, 3-6 years old, 6 monkeys/compound, purchased from Suzhou Xishan Biotechnology Co., Ltd.
Experimental method: on the day of the experiment, 6 monkeys were randomly grouped according to their body weights. The cynomolgus monkeys were fasted with water available for 14-18 h one day before the administration, and were fed 4 h after the administration.
Sampling: before and after the administration, 1.0 mL of blood was taken from the limb veins and placed in an EDTAK2 centrifuge tube. Centrifugation was carried out at 5000 rpm at 4°C for 10 min, and the plasma was collected.
The plasma collection time points for IV&PO groups were 0, 5 min, 15 min, 30 min, 1 h, 2 h, 4 h, 6 h, 8 h, 10 h, 12 h, and 24 h.
Before analysis and detection, all samples were stored at -60°C. The samples were analyzed quantitatively by LC-MS/MS.
Data set [5] deals with Caco-2 cells. As to conditions: Caco2, compared with the trifluoroacetate of LNP023; in words.
Method: (§1) In the experiment, a monolayer of Caco-2 cells was used, and incubated in triplicate in a 96-well Transwell plate. A transport buffer solution (HBSS, 10 mM HEPES, pH 7.4 ± 0.05) containing the compound of the present invention (2 µM) or the control compound digoxin (10 µM), nadolol (2 µM) or metoprolol (2 µM) was added to the administration end hole on the apical side or basal side. A DMSO-containing transport buffer solution was added to the corresponding receiving end hole. After incubation for 2 hours at 37°C ± 1°C, the cell plate was removed, and an appropriate amount of samples was taken from both the apical side and basal side and transferred to a new 96-well plate. Subsequently, acetonitrile containing an internal standard was added to precipitate the protein. The samples were analyzed using LC MS/MS, and the concentrations of the compound of the present invention and the control compound were determined. Concentration data were used to calculate apparent permeability coefficients for transport from the apical side to the basal side, and from the basal side to the apical side of the cell monolayer, and thus to calculate the efflux ratio. The integrity of the cell monolayer after 2 hours of incubation was evaluated by leakage of Lucifer Yellow.
Data set [6] is described as follows: in vitro. The following applies: human, Caco-2, pH 7.4.
Method: as §1
For data set [7], the target named is complement factor B (Homo sapiens, UniProt P00751). As to conditions: in words; disclosed in PCT/CN 2022/113216; cited from earlier work.
Data set [8] concerns C3a level. As to conditions: in words; disclosed in PCT/CN 2022/113216; cited from earlier work.
The mark [9] stands for this setting: male, rat, po, SD rats, plasma, i.g. (10 mg/kg).
[10] abbreviates: in rats, compared with LNP023, in words.

The values below come from patent EP4667465A1, “SALT OF BENZO-NITROGEN HETEROAROMATIC RING DERIVATIVE, CRYSTALLINE FORM, AND PHARMACEUTICAL USE THEREOF” (Haisco Pharmaceutical Group Co., Ltd., priority 2023, dated 2024).

By bioavailability is commonly meant the share of a dose that reaches the circulation, judged against a reference dose that is usually intravenous. Lower therefore signals poor availability. By Cmax is commonly meant the maximum level reached in the sampled fluid or tissue. In general, Tmax refers to the time at which the peak concentration occurs. As usually defined, the half-life is how long it takes for the measured level to halve. A high value points to slow decline. As usually defined, the Papp A→B is the apparent permeability from the apical to the basolateral side of a cell layer. In general, Papp B→A refers to the apparent permeability from the basolateral to the apical side of a cell layer.

complement factor B, sequence (P00751 26-764): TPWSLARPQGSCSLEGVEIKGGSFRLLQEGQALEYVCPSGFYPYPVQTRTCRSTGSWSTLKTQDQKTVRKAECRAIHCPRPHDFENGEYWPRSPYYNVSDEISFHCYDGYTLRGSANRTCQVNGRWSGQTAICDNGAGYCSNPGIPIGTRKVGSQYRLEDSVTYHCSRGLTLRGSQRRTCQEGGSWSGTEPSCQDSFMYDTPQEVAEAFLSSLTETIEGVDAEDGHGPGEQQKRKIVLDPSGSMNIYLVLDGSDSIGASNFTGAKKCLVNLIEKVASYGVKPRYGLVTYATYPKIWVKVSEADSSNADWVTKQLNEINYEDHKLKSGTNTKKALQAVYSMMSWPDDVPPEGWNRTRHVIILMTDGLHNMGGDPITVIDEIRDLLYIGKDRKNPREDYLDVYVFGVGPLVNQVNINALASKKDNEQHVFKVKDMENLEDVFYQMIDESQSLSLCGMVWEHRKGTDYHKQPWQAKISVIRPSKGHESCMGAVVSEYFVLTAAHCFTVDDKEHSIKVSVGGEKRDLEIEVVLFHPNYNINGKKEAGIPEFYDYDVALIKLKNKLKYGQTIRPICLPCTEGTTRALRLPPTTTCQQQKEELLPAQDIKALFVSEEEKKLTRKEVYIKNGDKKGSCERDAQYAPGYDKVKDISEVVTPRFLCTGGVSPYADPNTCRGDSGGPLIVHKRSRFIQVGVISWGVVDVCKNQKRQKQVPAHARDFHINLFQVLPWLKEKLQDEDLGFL

Take `[2H]C([2H])([2H])Oc1cc(C)c2[nH]ccc2c1CN1CC[C@@H](C2CC2)C[C@H]1c1ccc(C(=O)O)cc1` [4-((2S,4R)-4-cyclopropyl-1-((5-(methoxy-d3)-7-methyl-1H-indol-4-yl)methyl)piperidin-2-yl)benzoic acid]: the Purity in data set [1] (0 day) amounted to 97.80%; in data set [1] (Accelerated: 40°C ± 2°C, 75% ± 5% RH, 1 month) it was 97.70%; in data set [1] (Accelerated: 40°C ± 2°C, 75% ± 5% RH, 2 months), 97.70%; in data set [1] (Accelerated: 40°C ± 2°C, 75% ± 5% RH, 3 months), 97.90%; in data set [1] (Accelerated: 40°C ± 2°C, 75% ± 5% RH, 6 months) it was 97.80%; in data set [1] (Intermediate: 25°C ± 2°C, 60% ± 5% RH, 3 months), 98.00%. Besides, the Purity in data set [1] (Intermediate: 25°C ± 2°C, 60% ± 5% RH, 6 months) is reported as 97.80%; in data set [1] (Long-term: 2°C - 8°C, 3 months) it was 97.90%; in data set [1] (Long-term: 2°C - 8°C, 6 months) it was 97.70%. Further, the stability entry in data set [1] (under accelerated, intermediate and long-term conditions, conclusion in words) is “good stability”. Also, the hygroscopic weight gain result in data set [2] was “about 1.15%”.

Turning to `CCO[C@H]1CCN(Cc2c(OC)cc(C)c3[nH]ccc23)[C@H](c2ccc(C(=O)O)cc2)C1` [LNP023], the bioavailability in data set [3] (male, rat, plasma, po, SD rats, i.g. (10 mg/kg)) was found to be 49%. In data set [3] (setting [9]), the Cmax amounted to 867 ng/mL, the Tmax stood at 3.5 h and the half-life is 3.39 h. Moreover, the AUC(0-t) in data set [3] (male, rat, po, SD rats, plasma, i.g. (10 mg/kg), read-out: AUC0-24h) is 9870 ng·h/mL.

`[2H]C([2H])([2H])Oc1cc(C)c2[nH]ccc2c1CN1CC[C@@H](C2CC2)C[C@H]1c1ccc(C(=O)O)cc1` [Trifluoroacetate of compound 1, 4-((2S,4R)-4-cyclopropyl-1-((5-(methoxy-d3)-7-methyl-1H-indol-4-yl)methyl)piperidin-2-yl)benzoic acid]: in data set [3] (setting [10]), the maximum plasma concentration result is recorded as “higher” and the oral bioavailability result was “higher”. Moreover, in data set [4], the bioavailability entry is “higher” and the oral exposure result is on record as “higher”. In addition, the permeability entry in data set [5] was “better”. For the same compound, in data set [6], the Papp A→B at 2 h, 2 µM came out at 1.77 ×10⁻⁶ cm/s and the Papp B→A at 2 h, 2 µM was found to be 19.4 ×10⁻⁶ cm/s.

In the case of `[2H]C([2H])([2H])Oc1cc(C)c2[nH]ccc2c1CN1CC[C@@H](C2CC2)C[C@H]1c1ccc(C(=O)O)cc1` [compound 1, 4-((2S,4R)-4-cyclopropyl-1-((5-(methoxy-d3)-7-methyl-1H-indol-4-yl)methyl)piperidin-2-yl)benzoic acid], in data set [7], the “inhibitory activity against complement factor B” value was “good”. In addition, the “inhibition rate of C3a level in vivo” value in data set [8] was “good”.
